This is an account of results in patent US6497899B2, “Rapidly disintegrating and fast-dissolving solid dosage form” (Pfizer, Inc., priority 2000, dated 2002).

This data set is described as follows: Dissolution testing of medicated tablets, USP/NF method 711, apparatus 2 at 50 RPM, UV absorption. In kind it is physicochemical. Conditions: medicated steam extruded starch solid dosage form, apparatus 2, 50 RPM. The protocol: Dosage form dissolution is measured by the United States Pharmacopeia/National Formulary (USP/NF) method 711 (United States Pharmacopeia, Rockville, Md., USA) and is summarized below:
The assembly from Apparatus 1 is used except that a paddle formed from a blade and a shaft is used as the stirring element. The shaft is positioned so that its axis is not more than 2 mm at any point from the vertical axis of the vessel and rotates smoothly without significant wobble. The vertical center line of the blade passes through the axis of the shaft so that the bottom of the blade is flush with the bottom of the shaft. The distance of 25±2 mm between the blade and the inside bottom of the vessel is maintained during the test. The metallic or suitably inert, rigid blade and shaft comprise a single entity that may be coated with a suitable inert coating. The dosage unit is allowed to sink to the bottom of the vessel before rotation of the blade is started. A small, loose piece of nonreactive material such as not more than a few turns of wire helix may be attached to dosage units that would otherwise float. Other validated sinker devices may be used. […]
The stated volume of the dissolution medium (±1%) is placed in the vessel of the apparatus. The dissolution medium is equilibrated to 37±0.5°C., and the thermometer removed. One solid dosage form is placed in the apparatus, taking care to exclude air bubbles from the surface of the dosage-form unit and either apparatus is immediately operated at a rate of 50 rpm. The concentration of dissolved drug in dissolution medium is measured over time by ultraviolet spectrophotometer to calculate the dissolution rate.
The medicated tablets were dissolved according to USP/NF method 711 using apparatus 2 at 50 RPM. Levels of medicament released were determined by UV absorption.

[1] abbreviates: dissolution media Simulated Intestinal Fluid without enzyme.
The mark [2] stands for this setting: dissolution media deionized H2O, 37 C.

Structures are written as SMILES.

As for `CC(C(=O)O)c1ccc2c(c1)[nH]c1ccc(Cl)cc12` (stereo not shown) [Carprofen], under setting [1], the 1 minute release is on record as 33.4%, the 5 minute release was 69.6%, the 10 minute release is given as 82.8% and the 60 minute release is 101.4%.
Turning to `Cl.Cl.O=C(O)COCCN1CCN(C(c2ccccc2)c2ccc(Cl)cc2)CC1` (stereo not shown) [Cetirizine.HCl], under setting [2], the 1 minute release turned out to be 65.5%, the 5 minute release was 82.7% and the 60 minute release stood at 100.1%.
For `OC(Cn1cncn1)(Cn1cncn1)c1ccc(F)cc1F` [Diflucan, Fluconazole], in that order: 60.3%, 76.7% and 97.6%.
